{"source": "patent US7745636B2", "about": "“Hepatitis C virus inhibitors” (Bristol-Myers Squibb Company, priority 2006, dated 2010)", "data": [{"system": "HCV 1b-377-neo replicon cells", "assay": "HCV Replicon assay, HCV 1b-377-neo replicon cells", "type": "cell-based, HCV 1b genotype", "conditions": "Hepatitis C virus, Table 2, read-out: Range (EC50 against HCV 1b)", "experimental": "(§1) An HCV Replicon assay was utilized in the present disclosure, and was prepared, conducted and validated as described in commonly owned PCT/US2006/022197 and in O'Boyle et. al. Antimicrob Agents Chemother. 2005 April; 49(4):1346-53.\n(§2) HCV 1b-377-neo replicon cells were used to test the currently described compound series as well as cells resistant to compound A due to a Y2065H mutation in NS5A (described in application PCT/US2006/022197). The compounds tested were determined to have more than 10-fold less inhibitory activity on cells resistant to compound A than wild-type cells indicating a related mechanism of action between the two compound series. Thus, the compounds of the present disclosure can be effective to inhibit the function of the HCV NS5A protein and are understood to be as effective in combinations as previously described in application PCT/US2006/022197 and commonly owned WO/O4014852. Further, the compounds of the present disclosure can be effective against the HCV 1b genotype. It should also be understood that the compounds of the present disclosure can inhibit multiple genotypes of HCV. […] In one embodiment compounds of the present disclosure are active against the 1a, 1b, 2a, 2b, 3a, 4a, and 5a genotypes.", "units": {"EC50": "pM"}, "values": [{"molecule": "CCN(CC)C(C)C(=O)N1CCC[C@H]1c1nc(C(F)(F)F)c(-c2ccc(-c3ncc(-c4cnc([C@@H]5CCCN5C(=O)[C@@H](C)N(CC)CC)[nH]4)cn3)cc2)[nH]1", "note": "(stereo in doubt) [Example J51, (2R)-1-((2S)-2-(5-(4-(5-(2-((2S)-1-((2R)-2-(diethylamino)propanoyl)-2-pyrrolidinyl)-1H-imidazol-5-yl)-2-pyrimidinyl)phenyl)-4-(trifluoromethyl)-1H-imidazol-2-yl)-1-pyrrolidinyl)-N,N-diethyl-1-oxo-2-propanamine]", "EC50": "1000 to 99000"}, {"molecule": "CN(C)[C@@H](C(=O)N1CCC[C@H]1c1ncc(-c2ccc(-c3ccc(-c4cnc([C@@H]5CCCN5C(=O)[C@@H](c5ccccc5)N(C)C)[nH]4)cc3)cc2)[nH]1)c1ccccc1", "note": "[Example 1, (1R,1′R)-2,2′-(4,4′-biphenyldiylbis(1H-imidazole-5,2-diyl(2S)-2,1-pyrrolidinediyl))bis(N,N-dimethyl-2-oxo-1-phenylethanamine)]", "EC50": "1 to 999"}, {"molecule": "COC(=O)N[C@@H](C(=O)N(C)[C@@H](C)c1ncc(-c2ccc(-c3ccc(-c4cnc([C@H](C)N(C)C(=O)[C@H](NC(=O)OC)c5ccccc5)[nH]4)cc3)cc2)[nH]1)c1ccccc1", "note": "[Example 24-18-1, dimethyl (4,4′-biphenyldiylbis (1H-imidazole-5,2-diyl(1S)-1,1-ethanediyl(methyl-imino)((1R)-2-oxo-1-phenyl-2,1-ethanediyl))) biscarbamate]", "EC50": "1 to 999"}, {"molecule": "C[C@@H](c1ncc(-c2ccc(-c3ccc(-c4cnc([C@H](C)N(C)C(=O)[C@@H](c5ccccc5)N(C)C)[nH]4)cc3)cc2)[nH]1)N(C)C(=O)[C@@H](c1ccccc1)N(C)C", "note": "[Example 24-18-2, (2R,2′R)-N,N′-(4,4′-biphenyldiylbis (1H-imidazole-5,2-diyl(1S)-1,1-ethanediyl))bis(2-(dimethylamino)-N-methyl-2-phenylacetamide)]", "EC50": "1 to 999"}, {"molecule": "C[C@@H](c1ncc(-c2ccc(-c3ccc(-c4cnc([C@H](C)N(C)C(=O)[C@@H](c5ccccc5)N5CCCCC5)[nH]4)cc3)cc2)[nH]1)N(C)C(=O)[C@@H](c1ccccc1)N1CCCCC1", "note": "[Example 24-18-3, (2R,2′R)-N,N′-(4,4′-biphenyldiylbis (1H-imidazol-5,2-diyl(1S)-1,1-ethanediyl))bis(N-methyl-2-phenyl-2-(1-piperidinyl)acetamide)]", "EC50": "1 to 999"}, {"molecule": "COC(=O)N[C@@H](C(=O)N(C)[C@@H](C)c1ncc(-c2ccc(-c3ccc(-c4cnc([C@@H]5CCCN5C(=O)[C@H](NC(=O)OC)c5ccccc5)[nH]4)cc3)cc2)[nH]1)c1ccccc1", "note": "[Example 24-18-4, methyl ((1R)-2-((2S)-2-(5-(4′-(2-((1S)-1-(((2R)-2-((methoxycarbonyl)amino)-2-phenylacetyl) (methyl)amino)ethyl)-1H-imidazol-5-yl)-4-biphenylyl)-1H-imidazol-2-yl)-1-pyrrolidinyl)-2-oxo-1-phenylethyl) carbamate]", "EC50": "1 to 999"}, {"molecule": "C[C@@H](c1ncc(-c2ccc(-c3ccc(-c4cnc([C@@H]5CCCN5C(=O)[C@@H](c5ccccc5)N(C)C)[nH]4)cc3)cc2)[nH]1)N(C)C(=O)[C@@H](c1ccccc1)N(C)C", "note": "[Example 24-18-5, (2R)-2-(dimethylamino)-N-((1S)-1-(5-(4′-(2-((2S)-1-((2R)-2-(dimethylamino)-2-phenylacetyl)-2-pyrrolidinyl)-1H-imidazol-5-yl)-4-biphenylyl)-1H-imidazol-2-yl)ethyl)-N-methyl-2-phenylacetamide]", "EC50": "1 to 999"}, {"molecule": "COC(=O)N[C@@H](C(=O)N1CCC[C@H]1c1ncc(-c2ccc(-c3ccc(-c4cnc([C@@H]5CCCN5C(=O)Cc5ccccc5)[nH]4)cc3)cc2)[nH]1)c1ccccc1", "note": "[Example 28, methyl((1R)-2-oxo-1-phenyl-2-((2S)-2-(5-(4′-(2-((2S)-1-(phenylacetyl)-2-pyrrolidinyl)-1H-imidazol-5-yl)-4-biphenylyl)-1H-imidazol-2-yl)-1-pyrrolidinyl)ethyl)carbamate]", "EC50": "1000 to 99000"}, {"molecule": "Cc1cc(-c2cnc([C@@H]3CCCN3C(=O)[C@@H](c3ccccc3)N(C)C)[nH]2)ccc1-c1ccc(-c2cnc([C@@H]3CCCN3C(=O)[C@@H](c3ccccc3)N(C)C)[nH]2)cc1C", "note": "[Example 121, (1R,1′R)-2,2′-((2,2′-dimethyl-4,4′-biphenyldiyl)bis(1H-imidazole-5,2-diyl(2S)-2,1-pyrrolidinediyl))bis(N,N-dimethyl-2-oxo-1-phenylethanamine)]", "EC50": "1 to 999"}, {"molecule": "COC(=O)N[C@@H](C(=O)N1CCC[C@H]1c1ncc(-c2ccc(-c3ccc(-c4cnc([C@@H]5CCCN5C(=O)[C@@H](c5ccccc5)N(C)C)[nH]4)cc3C)cc2)[nH]1)c1ccccc1", "note": "[Example 126, methyl ((1R)-2-((2S)-2-(5-(4′-(2-((2S)-1-((2R)-2-(dimethylamino)-2-phenylacetyl)-2-pyrrolidinyl)-1H-imidazol-5-yl)-2′-methyl-4-biphenylyl)-1H-imidazol-2-yl)-1-pyrrolidinyl)-2-oxo-1-phenylethyl)carbamate]", "EC50": "1 to 999"}, {"molecule": "COC(=O)N[C@@H](C(=O)N1CCC[C@H]1c1ncc(-c2ccc(-c3ccc(-c4cnc([C@@H]5CCCN5C(=O)Cc5cccnc5)[nH]4)cc3C)cc2)[nH]1)c1ccccc1", "note": "[Example 127, methyl ((1R)-2-((2S)-2-(5-(2′-methyl-4′-(2-((2S)-1-(3-pyridinylacetyl)-2-pyrrolidinyl)-1H-imidazol-5-yl)-4-biphenylyl)-1H-imidazol-2-yl)-1-pyrrolidinyl)-2-oxo-1-phenylethyl)carbamate]", "EC50": "1 to 999"}, {"molecule": "COC(=O)N[C@@H](C(=O)N1CCC[C@H]1c1ncc(-c2ccc(-c3ccc(-c4cnc([C@@H]5CCCN5C(=O)[C@@H]5CCCO5)[nH]4)cc3C)cc2)[nH]1)c1ccccc1", "note": "[Example 128, methyl ((1R)-2-((2S)-2-(5-(2′-methyl-4′-(2-((2S)-1-((2S)-tetrahydro-2-furanylcarbonyl)-2-pyrrolidinyl)-1H-imidazol-5-yl)-4-biphenylyl)-1H-imidazol-2-yl)-1-pyrrolidinyl)-2-oxo-1-phenylethyl)carbamate]", "EC50": "1 to 999"}, {"molecule": "CN(C)[C@@H](C(=O)N1CCC[C@H]1c1ncc(-c2ccc(-c3ccc(-c4cnc([C@@H]5CCCN5C(=O)[C@@H](c5ccccc5)N(C)C)[nH]4)cc3C(F)(F)F)cc2)[nH]1)c1ccccc1", "note": "[Example 130, (1R,1′R)-2,2′-((2-(trifluoromethyl)-4,4′-biphenyldiyl)bis(1H-imidazole-5,2-diyl(2S)-2,1-pyrrolidinediyl))bis(N,N-dimethyl-2-oxo-1-phenylethanamine)]", "EC50": "1 to 999"}]}, {"system": "HCV 1b-377-neo replicon cells", "assay": "HCV Replicon assay, HCV 1b-377-neo replicon cells", "type": "cell-based, HCV 1b genotype", "conditions": "Table 2, listed as 151 isomer 1, read-out: Range (EC50 against HCV 1b)", "experimental": "as §1, §2", "units": {"EC50": "pM"}, "values": [{"molecule": "CN(C)[C@@H](C(=O)N1CCC[C@H]1c1nc(-c2ccc(-c3ccc(-c4cn(C)c([C@@H]5CCCN5C(=O)[C@@H](c5ccccc5)N(C)C)n4)cc3)cc2)cn1C)c1ccccc1", "note": "(single isomer, unassigned) [Example 151 isomer 1]", "EC50": "1000 to 99000"}]}, {"system": "HCV 1b-377-neo replicon cells", "assay": "HCV Replicon assay, HCV 1b-377-neo replicon cells", "type": "cell-based, HCV 1b genotype", "conditions": "Table 2, listed as 151 isomer 2, read-out: Range (EC50 against HCV 1b)", "experimental": "as §1, §2", "units": {"EC50": "pM"}, "values": [{"molecule": "CN(C)[C@@H](C(=O)N1CCC[C@H]1c1nc(-c2ccc(-c3ccc(-c4cn(C)c([C@@H]5CCCN5C(=O)[C@@H](c5ccccc5)N(C)C)n4)cc3)cc2)cn1C)c1ccccc1", "note": "(single isomer, unassigned) [Example 151 isomer 2]", "EC50": "100000 to 999000"}]}, {"system": "HCV 1b-377-neo replicon cells", "assay": "HCV Replicon assay, HCV 1b-377-neo replicon cells", "type": "cell-based, HCV 1b genotype", "conditions": "Table 2, read-out: Range (EC50 against HCV 1b)", "experimental": "as §1, §2", "units": {"EC50": "pM"}, "values": [{"molecule": "CC(C)[C@H](NC(=O)OC(C)(C)C)c1ncc(-c2ccc(-c3ccc(-c4cnc([C@@H](NC(=O)OC(C)(C)C)C(C)C)[nH]4)cc3)cc2)[nH]1", "note": "[Example 3]", "EC50": "1 to 999"}]}]}
